Reference: ChEMBL document CHEMBL1135556, “alpha-bromoacetophenone derivatives as neutral protein tyrosine phosphatase inhibitors: structure-Activity relationship” (Bioorg Med Chem Lett, 2002)

What follows are compounds tested against T1, Tyrosine-protein phosphatase non-receptor type 6 (Homo sapiens, UniProt P29350) (assay: not given).
T1 sequence (P29350 whole entry): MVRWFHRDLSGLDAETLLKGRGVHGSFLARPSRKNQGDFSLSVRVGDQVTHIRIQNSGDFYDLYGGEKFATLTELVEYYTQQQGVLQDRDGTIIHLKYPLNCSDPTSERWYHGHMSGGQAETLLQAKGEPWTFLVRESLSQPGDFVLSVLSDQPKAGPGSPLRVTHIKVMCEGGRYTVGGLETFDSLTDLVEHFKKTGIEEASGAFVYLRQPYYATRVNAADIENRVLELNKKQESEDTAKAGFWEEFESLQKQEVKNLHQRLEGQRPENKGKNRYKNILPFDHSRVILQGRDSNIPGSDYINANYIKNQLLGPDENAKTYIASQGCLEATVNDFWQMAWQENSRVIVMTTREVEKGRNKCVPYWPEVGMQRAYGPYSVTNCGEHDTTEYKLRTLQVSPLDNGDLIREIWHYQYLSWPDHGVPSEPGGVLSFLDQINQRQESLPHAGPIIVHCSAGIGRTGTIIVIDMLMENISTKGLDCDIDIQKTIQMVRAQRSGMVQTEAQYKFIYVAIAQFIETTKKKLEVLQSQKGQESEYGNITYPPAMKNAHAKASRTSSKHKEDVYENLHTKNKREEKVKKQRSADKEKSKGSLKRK

Row | Compound | kinact [min⁻¹]
1 | O=C(O)CCC(NC(=O)[C@H](CCC(=O)O)NC(=O)CNC(=O)COc1ccc(C(=O)CBr)cc1)C(=O)O (some centres not stated) | 6.6

The compounds below were run against Tyrosine-protein phosphatase non-receptor type 6, SHP-1 (Homo sapiens) (UniProt P29350) (assay: Dissociation constant towards SHP 1 receptor-inhibitor complex was determined using PNP as substrate).
Chain of Tyrosine-protein phosphatase non-receptor type 6, SHP-1 (Homo sapiens) (P29350 whole entry, looked up): as the sequence (P29350 whole entry) above

Row | Compound | Ki [µM]
2 | NC(N)=NCCCC(NC(=O)[C@H](CCCN=C(N)N)NC(=O)CNC(=O)COc1ccc(C(=O)CBr)cc1)C(=O)O (some centres not stated) | 760
3 | O=C(CBr)c1ccc(-c2ccccc2C(=O)O)cc1 | 220
4 | O=C(O)COc1ccc(C(=O)CBr)cc1 | 193

Each compound was assayed against Tyrosine-protein phosphatase non-receptor type 6, SHP-1 (Homo sapiens) (UniProt P29350) (assay: Dissociation constant towards SHP-1 receptor-inhibitor complex was determined using PNP as substrate).

Row | Compound | Ki [µM]
5 | O=C(CBr)c1ccccn1 | 173
6 | O=C(O)CCC(NC(=O)[C@H](CCC(=O)O)NC(=O)CNC(=O)COc1ccc(C(=O)CBr)cc1)C(=O)O (some centres not stated) | 2.8
7 | O=C(CBr)c1ccc(-c2ccccc2)cc1 | 14
8 | O=C(CCl)c1ccc(F)cc1 | 380
9 | O=C(CBr)c1ccc2ccccc2c1 | 25
10 | O=C(CBr)c1ccc(C(F)(F)F)cc1 | 14
11 | O=C(CBr)c1ccc(O)cc1 | 43
12 | O=C(CBr)c1ccc(F)cc1 | 56
13 | O=C(CCl)c1ccc(O)c(O)c1 | 1400
14 | O=C(CCl)c1ccccc1 [PHENACYL CHLORIDE] | 480
15 | O=C(CBr)c1ccccc1 | 81
16 | O=C(O)COc1ccc(C(=O)CCl)cc1 | 2500
17 | O=C(CBr)c1cccc2ccccc12 | 92
18 | O=C(CCl)c1ccc(F)cc1F | 17500

These compounds were tested against Tyrosine-protein phosphatase non-receptor type 6, SHP-1 (Homo sapiens) (UniProt P29350) (assay: First-order rate constant (K inact) for conversion of the ExI complex (SHP 1 protein -inhibitor complex) into the covalent adduct, EI was determined using PNP as substrate).

Row | Compound | kinact [min⁻¹]
19 | O=C(CBr)c1ccc(-c2ccccc2C(=O)O)cc1 | 1
20 | O=C(O)COc1ccc(C(=O)CBr)cc1 | 1.8

The compounds below were run against Tyrosine-protein phosphatase non-receptor type 6, SHP-1 (Homo sapiens) (UniProt P29350) (assay: Ratio between dissociation constant and First-order rate constant (K inact / Ki) was determined).

Row | Compound | Ratio [M⁻¹ min⁻¹]
21 | O=C(CBr)c1ccccn1 | 7500
22 | O=C(CBr)c1ccc(-c2ccccc2)cc1 | 41
23 | O=C(CCl)c1ccc(F)cc1 | 580
24 | O=C(CBr)c1ccc(-c2ccccc2C(=O)O)cc1 | 4550
25 | O=C(CBr)c1ccc2ccccc2c1 | 20000
26 | O=C(CBr)c1ccc(C(F)(F)F)cc1 | 26000
27 | O=C(O)COc1ccc(C(=O)CBr)cc1 | 9300
28 | O=C(CBr)c1ccc(O)cc1 | 9300
29 | O=C(CBr)c1ccc(F)cc1 | 9100
30 | O=C(CCl)c1ccc(O)c(O)c1 | 420
31 | O=C(CCl)c1ccccc1 [PHENACYL CHLORIDE] | 430
32 | N=C(N)NCCCC(NC(=O)[C@H](CCCNC(=N)N)NC(=O)CNC(=O)COc1ccc(C(=O)CBr)cc1)C(=O)O (some centres not stated) | 6300
33 | O=C(CBr)c1ccccc1 | 7100
34 | O=C(O)COc1ccc(C(=O)CCl)cc1 | 710
35 | O=C(CBr)c1cccc2ccccc12 | 9400
36 | O=C(CCl)c1ccc(F)cc1F | 120

These compounds were tested against T1, Tyrosine-protein phosphatase non-receptor type 6 (assay: Dissociation constant towards SHP 1 receptor-inhibitor complex was determined using PNP as substrate).

Row | Compound | Ki [µM]
37 | O=C(O)CCC(NC(=O)[C@H](CCC(=O)O)NC(=O)CNC(=O)COc1ccc(C(=O)CBr)cc1)C(=O)O (some centres not stated) | 29

Each compound was assayed against T2, Tyrosine-protein phosphatase non-receptor type 1 (Homo sapiens) (UniProt P18031) (assay: First-order rate constant (K inact) for conversion of the ExI complex (SHP 1 receptor -inhibitor complex) into the covalent adduct, EI was determined using PNP as substrate).
T2 sequence (whole entry): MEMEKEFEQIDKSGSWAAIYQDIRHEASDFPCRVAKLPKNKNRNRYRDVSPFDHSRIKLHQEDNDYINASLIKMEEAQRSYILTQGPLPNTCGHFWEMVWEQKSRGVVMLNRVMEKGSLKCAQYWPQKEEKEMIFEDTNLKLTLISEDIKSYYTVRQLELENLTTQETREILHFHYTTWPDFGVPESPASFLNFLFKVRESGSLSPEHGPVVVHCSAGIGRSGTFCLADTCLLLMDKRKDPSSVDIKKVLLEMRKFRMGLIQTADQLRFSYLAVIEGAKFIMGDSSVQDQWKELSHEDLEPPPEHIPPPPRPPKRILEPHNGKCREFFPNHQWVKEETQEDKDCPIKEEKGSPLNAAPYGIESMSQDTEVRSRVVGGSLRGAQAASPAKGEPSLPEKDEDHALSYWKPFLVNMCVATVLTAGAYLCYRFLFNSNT

Row | Compound | kinact [min⁻¹]
38 | N=C(N)NCCCC(NC(=O)[C@H](CCCNC(=N)N)NC(=O)CNC(=O)COc1ccc(C(=O)CBr)cc1)C(=O)O (some centres not stated) | 4.8

The compounds below were run against Tyrosine-protein phosphatase non-receptor type 6, SHP-1 (Homo sapiens) (UniProt P29350) (assay: First-order rate constant (K inact) for conversion of the ExI complex (SHP-1 -inhibitor complex) into the covalent adduct, EI was determined using PNP as substrate).

Row | Compound | kinact [min⁻¹]
39 | O=C(CBr)c1ccccn1 | 1.3
40 | O=C(O)CCC(NC(=O)[C@H](CCC(=O)O)NC(=O)CNC(=O)COc1ccc(C(=O)CBr)cc1)C(=O)O (some centres not stated) | 1.2
41 | O=C(CBr)c1ccc(-c2ccccc2)cc1 | 0.59
42 | O=C(CCl)c1ccc(F)cc1 | 0.22
43 | O=C(CBr)c1ccc2ccccc2c1 | 0.48
44 | O=C(CBr)c1ccc(C(F)(F)F)cc1 | 0.37
45 | O=C(CBr)c1ccc(O)cc1 | 0.4
46 | O=C(CBr)c1ccc(F)cc1 | 0.51
47 | O=C(CCl)c1ccc(O)c(O)c1 | 0.59
48 | O=C(CCl)c1ccccc1 [PHENACYL CHLORIDE] | 0.21
49 | O=C(CBr)c1ccccc1 | 0.58
50 | O=C(O)COc1ccc(C(=O)CCl)cc1 | 1.8
51 | O=C(CBr)c1cccc2ccccc12 | 0.86
52 | O=C(CCl)c1ccc(F)cc1F | 2.1
